For five compounds, Emax results are on record in patent US10988524B2, “Modified relaxin B chain peptides and their therapeutic use” (priority 2018, dated 2021).

Non-standard residues stand in square brackets, D forms with d. Residues, ends and D or L forms follow the SMILES beside them. 1Nal = N[C@@H](Cc1cccc2ccccc12)C(=O)O; Nle = CCCC[C@H](N)C(=O)O; Aib = CC(C)(N)C(=O)O

For this assay, the target named is T1, RXFP1 (Homo sapiens, UniProt Q9HBX9).
T1 sequence (Q9HBX9 1-757): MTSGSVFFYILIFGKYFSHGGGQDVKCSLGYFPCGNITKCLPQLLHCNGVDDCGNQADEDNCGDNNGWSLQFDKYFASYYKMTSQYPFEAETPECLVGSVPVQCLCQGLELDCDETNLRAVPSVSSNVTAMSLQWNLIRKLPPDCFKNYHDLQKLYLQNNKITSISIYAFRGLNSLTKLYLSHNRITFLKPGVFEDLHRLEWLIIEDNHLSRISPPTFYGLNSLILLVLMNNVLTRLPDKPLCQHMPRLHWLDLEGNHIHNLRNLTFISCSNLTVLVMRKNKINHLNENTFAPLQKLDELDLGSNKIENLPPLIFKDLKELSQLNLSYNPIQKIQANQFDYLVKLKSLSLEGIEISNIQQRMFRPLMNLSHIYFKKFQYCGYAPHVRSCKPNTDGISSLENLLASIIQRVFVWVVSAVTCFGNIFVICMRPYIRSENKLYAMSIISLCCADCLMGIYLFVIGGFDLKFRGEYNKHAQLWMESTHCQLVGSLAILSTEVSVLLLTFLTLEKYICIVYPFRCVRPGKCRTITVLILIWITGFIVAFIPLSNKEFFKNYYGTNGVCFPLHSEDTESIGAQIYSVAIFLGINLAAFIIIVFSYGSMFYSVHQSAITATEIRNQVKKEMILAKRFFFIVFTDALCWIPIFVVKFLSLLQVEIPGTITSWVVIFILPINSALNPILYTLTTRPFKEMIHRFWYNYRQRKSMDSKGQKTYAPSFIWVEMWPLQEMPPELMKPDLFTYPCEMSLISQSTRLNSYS
Description: OVCAR5 cAMP assay (RXFP1 agonist activity, HTRF). As to conditions: OVCAR-5, read-out: cAMP assay in OVCAR 5 cells Emax, maximal intracellular cAMP relative to H2-relaxin in the same test occasion. In general terms: Changes in cAMP serve as a functional read-out for many G protein-coupled receptors.
For orientation: Emax means the greatest response seen or fitted, relative to the assay's reference. For the compound `CC[C@H](C)[C@H](NC(=O)[C@H](CCC(N)=O)NC(=O)[C@H](C)NC(=O)[C@H](CCCNC(=N)N)NC(=O)[C@@H](NC(=O)[C@H](CCCCN)NC(=O)[C@H](CCC(=O)O)NC(=O)[C@H](CCCNC(=N)N)NC(=O)CNC(=O)[C@H](CCC(=O)O)NC(=O)C(C)(C)NC(C)=O)C(C)C)C(=O)NC(C)(C)C(=O)NC(C)(C)C(=O)N[C@@H](CCC(=O)O)C(=O)NCC(=O)N[C@@H](CCSC)C(=O)N[C@@H](CO)C(=O)N[C@@H](CCCCN)C(=O)N[C@@H](Cc1c[nH]c2ccccc12)C(=O)N[C@@H](CO)C(=O)N[C@@H](CCCCN)C(=O)N[C@@H](CCCNC(=N)N)C(=O)N[C@@H](CCCCN)C(=O)N[C@@H](CCCCN)C(N)=O` [compound 11] (Ac-[Aib]EGREKVRAQI[Aib][Aib]EGMSKWSKRKK-NH2), the Emax is 102%.

`CCCC[C@H](NC(=O)CNC(=O)[C@H](CCC(=O)O)NC(=O)C(C)(C)NC(=O)C(C)(C)NC(=O)[C@@H](NC(=O)[C@H](CCCCNC(C)=O)NC(=O)[C@H](C)NC(=O)[C@H](CCCNC(=N)N)NC(=O)[C@@H](NC(=O)[C@H](CCCCN)NC(=O)[C@H](CCC(=O)O)NC(=O)[C@H](CCCNC(=N)N)NC(=O)CNC(=O)[C@H](CCC(=O)O)NC(=O)[C@H](CC(C)C)NC(C)=O)C(C)C)[C@@H](C)CC)C(=O)N[C@@H](CO)C(=O)N[C@H](C(=O)N[C@@H](Cc1c[nH]c2ccccc12)C(=O)N[C@@H](CO)C(=O)NC(C)(C)C(=O)N[C@@H](CCCNC(=N)N)C(=O)N[C@@H](CCCCN)C(=O)N[C@@H](CC(C)C)C(N)=O)[C@@H](C)O` [compound 32] (Ac-LEGREKVRAK(Ac)I[Aib][Aib]EG[Nle]STWS[Aib]RKL-NH2): the Emax came out at 95%.

On to `CCCC[C@H](NC(=O)CNC(=O)[C@H](CCC(=O)O)NC(=O)C(C)(C)NC(=O)C(C)(C)NC(=O)[C@@H](NC(=O)[C@H](CCC(N)=O)NC(=O)[C@H](C)NC(=O)[C@H](CCCNC(=N)N)NC(=O)[C@@H](NC(=O)[C@H](CCCCN)NC(=O)[C@H](CCC(=O)O)NC(=O)[C@H](CCCNC(=N)N)NC(=O)CNC(=O)[C@H](CCC(=O)O)NC(=O)[C@H](CC(C)C)NC(C)=O)C(C)C)[C@@H](C)CC)C(=O)N[C@@H](CO)C(=O)N[C@H](C(=O)N[C@@H](Cc1cccc2ccccc12)C(=O)N[C@@H](CO)C(=O)N[C@@H](CCCCN)C(=O)N[C@@H](CCCNC(=N)N)C(N)=O)[C@@H](C)O` [compound 37] (Ac-LEGREKVRAQI[Aib][Aib]EG[Nle]ST[1Nal]SKR-NH2), for which the Emax was determined as 104%.

For `CC[C@H](C)[C@H](NC(=O)[C@H](CCC(N)=O)NC(=O)C(C)(C)NC(=O)[C@H](CCCNC(=N)N)NC(=O)[C@@H](NC(=O)[C@H](CCCCN)NC(=O)[C@H](CCC(=O)O)NC(=O)[C@H](CCCNC(=N)N)NC(=O)CNC(=O)[C@H](CCC(=O)O)NC(=O)[C@H](CC(C)C)NC(C)=O)C(C)C)C(=O)NC(C)(C)C(=O)N[C@H](C(=O)N[C@@H](CCC(=O)O)C(=O)NCC(=O)N[C@@H](CCSC)C(=O)N[C@@H](CO)C(=O)N[C@@H](CCCCN)C(=O)N[C@@H](Cc1c[nH]c2ccccc12)C(=O)N[C@@H](CO)C(=O)N[C@@H](CCCCN)C(=O)N[C@@H](CCCNC(=N)N)C(=O)N[C@@H](CCCCN)C(=O)N[C@@H](CCCCN)C(N)=O)[C@@H](C)CC` [compound 7] (Ac-LEGREKVR[Aib]QI[Aib]IEGMSKWSKRKK-NH2), the Emax was 101%.

For `CCCC[C@H](NC(=O)CNC(=O)[C@H](CCC(=O)O)NC(=O)[C@@H](NC(=O)C(C)(C)NC(=O)[C@@H](NC(=O)[C@H](CCC(N)=O)NC(=O)[C@H](C)NC(=O)[C@H](CCCNC(=N)N)NC(=O)[C@@H](NC(=O)[C@H](CCCCN)NC(=O)[C@H](CCC(=O)O)NC(=O)[C@H](CCCNC(=N)N)NC(=O)CNC(=O)[C@H](CCC(=O)O)NC(=O)[C@H](CC(C)C)NC(C)=O)C(C)C)[C@@H](C)CC)[C@@H](C)CC)C(=O)N[C@@H](CO)C(=O)N[C@@H](CCCCN)C(=O)N[C@@H](Cc1c[nH]c2ccccc12)C(=O)N[C@@H](CO)C(=O)N[C@@H](CCCCN)C(=O)N[C@@H](CCCNC(=N)N)C(=O)N[C@@H](CCCCN)C(=O)N[C@@H](CCCCN)C(N)=O` [compound 8] (Ac-LEGREKVRAQI[Aib]IEG[Nle]SKWSKRKK-NH2), the Emax came out at 103%.
